# Measurements: PubChem BioAssay AID330 (DTP/NCI, 2004)
# Several values for one entry are separate records, joined by “and”; a condition that tells them apart may be missing. Equal values may be shown once. Inconclusive results and toxic doses are left out.
# Test system: P388 leukemia ip, CD2F1 mice, survival T/C
# Assay: NCI In Vivo Anticancer Drug Screen. Data for tumor model P388 Leukemia (intraperitoneal) in CD2F1 (CDF1) mice
# Conditions: endpoint: median survival time, higher = longer survival
# Summary of the method: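 Mice carrying the transplanted tumor received test compound or vehicle. Survival was recorded in each group, and the value is the treated-group measurement divided by that of the vehicle-treated control group.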
# [1] = dose: 50.0 mg/kg/injection, schedule: Q01DX005 (ip), vehicle: Klucel (hydroxypropylcellulose) (HPC)
# [2] = dose: 100.0 mg/kg/injection, schedule: Q01DX005 (ip), vehicle: Klucel (hydroxypropylcellulose) (HPC)
# [3] = dose: 200.0 mg/kg/injection, schedule: Q01DX005 (ip), vehicle: Klucel (hydroxypropylcellulose) (HPC)
# [4] = dose: 12.5 mg/kg/injection, schedule: Q01DX009 (ip), vehicle: saline
# [5] = dose: 25.0 mg/kg/injection, schedule: Q01DX009 (ip), vehicle: saline
# [6] = dose: 25.0 mg/kg/injection, schedule: Q01DX009 (ip), vehicle: Klucel (hydroxypropylcellulose) (HPC)
# [7] = dose: 50.0 mg/kg/injection, schedule: Q01DX009 (ip), vehicle: Klucel (hydroxypropylcellulose) (HPC)
# [8] = dose: 100.0 mg/kg/injection, schedule: Q01DX009 (ip), vehicle: Klucel (hydroxypropylcellulose) (HPC)
# [9] = dose: 50.0 mg/kg/injection, schedule: Q01DX009 (ip), vehicle: saline with Tween-80
# [10] = dose: 100.0 mg/kg/injection, schedule: Q01DX009 (ip), vehicle: saline with Tween-80
# [11] = dose: 200.0 mg/kg/injection, schedule: Q01DX009 (ip), vehicle: saline with Tween-80
# [12] = dose: 25.0 mg/kg/injection, schedule: Q01DX009 (ip), vehicle: saline with Tween-80
# [13] = dose: 100.0 mg/kg/injection, schedule: Q04DX003 (ip), vehicle: saline with Tween-80
# [14] = dose: 60.0 mg/kg/injection, schedule: Q01DX005 (ip), vehicle: saline with Tween-80
# [15] = dose: 120.0 mg/kg/injection, schedule: Q01DX005 (ip), vehicle: saline with Tween-80
# [16] = dose: 240.0 mg/kg/injection, schedule: Q01DX005 (ip), vehicle: saline with Tween-80
smiles,measurement,setting,value
CC(=O)Nc1ccccc1CO,T/C,"dose: 25.0 mg/kg/injection, schedule: Q01DX005 (ip), vehicle: Klucel (hydroxypropylcellulose) (HPC)",97 % of control
same,T/C,[1],100 % of control
same,T/C,[2],100 % of control
same,T/C,[3],100 % of control
CCCCCCCCC[N+]1(CC)CCCC1,T/C,"dose: 6.25 mg/kg/injection, schedule: Q01DX009 (ip), vehicle: saline",117 % of control
same,T/C,[4],117 % of control
same,T/C,[5],91 % of control
Nc1ncc(C2CO2)c(-c2ccccc2)n1 (stereo not given),T/C,[6],94 % of control
same,T/C,[7],103 % of control
same,T/C,[8],108 % of control
NCC1OC(OC2C(CO)OC(OC3C(O)C(N)CC(N)C3OC3OC(CN)C(O)C(O)C3N)C2O)C(N)C(O)C1O (stereo not given),T/C,"dose: 100.0 mg/kg/injection, schedule: Q01DX001 (ip), vehicle: saline",100 % of control
same,T/C,"dose: 200.0 mg/kg/injection, schedule: Q01DX001 (ip), vehicle: saline",96 % of control
Cc1ccc(S(=O)(=O)C(C#N)(CCC(=O)/C=C/c2ccccc2)CCC(=O)/C=C/c2ccccc2)cc1,T/C,[1],99 % of control
same,T/C,[2],92 % of control
same,T/C,[3],92 % of control
O=c1[nH][nH]c(=S)n1-c1ccccc1,T/C,[9],98 % of control
same,T/C,[10],101 % of control
same,T/C,[11],94 % of control
same,T/C,"dose: 400.0 mg/kg/injection, schedule: Q01DX009 (ip), vehicle: saline with Tween-80",88 % of control
CC12CC3CC(C)(C1)CC(SC(=N)N)(C3)C2,T/C,"dose: 7.5 mg/kg/injection, schedule: Q01DX005 (ip), vehicle: saline with Tween-80",105 % of control
same,T/C,"dose: 15.0 mg/kg/injection, schedule: Q01DX005 (ip), vehicle: saline with Tween-80",104 % of control
same,T/C,"dose: 30.0 mg/kg/injection, schedule: Q01DX005 (ip), vehicle: saline with Tween-80",106 % of control
CCC(=[Se])N(CC)CC,T/C,"dose: 0.39 mg/kg/injection, schedule: Q01DX009 (ip), vehicle: Klucel (hydroxypropylcellulose) (HPC)",98 % of control
same,T/C,"dose: 0.78 mg/kg/injection, schedule: Q01DX009 (ip), vehicle: Klucel (hydroxypropylcellulose) (HPC)",102 % of control
same,T/C,"dose: 1.56 mg/kg/injection, schedule: Q01DX009 (ip), vehicle: Klucel (hydroxypropylcellulose) (HPC)",99 % of control
same,T/C,"dose: 6.25 mg/kg/injection, schedule: Q01DX009 (ip), vehicle: Klucel (hydroxypropylcellulose) (HPC)",100 % of control
S=P(c1ccccc1)(N1CC1)N1CC1,T/C,[12],109 % of control
same,T/C,"dose: 25.0 mg/kg/injection, schedule: Q04DX003 (ip), vehicle: saline with Tween-80",104 % of control
same,T/C,[9],104 % of control
same,T/C,"dose: 50.0 mg/kg/injection, schedule: Q04DX003 (ip), vehicle: saline with Tween-80",104 % of control
same,T/C,[10],86 % of control
same,T/C,[13],100 % of control and 113 % of control
CN1C2(c3ccccc3)OC(=O)C1(c1ccccc1)C1C(=O)C3C4c5ccccc5C(c5ccccc54)C3C(=O)C12 (stereo not given),T/C,[7],94 % of control
same,T/C,[8],100 % of control
same,T/C,"dose: 200.0 mg/kg/injection, schedule: Q01DX009 (ip), vehicle: Klucel (hydroxypropylcellulose) (HPC)",94 % of control
O=NN(C(=O)NC1CC1)C1CC1,T/C,"dose: 25.0 mg/kg/injection, schedule: Q01DX001 (ip), vehicle: water",111 % of control
same,T/C,"dose: 50.0 mg/kg/injection, schedule: Q01DX001 (ip), vehicle: water",102 % of control
same,T/C,"dose: 100.0 mg/kg/injection, schedule: Q01DX001 (ip), vehicle: water",109 % of control
C=C1C(=O)OC2/C=C(\C)CC/C=C(\C)C(OC(=O)C3(C)OC3C)C(O)C12 (stereo not given),T/C,"dose: 12.5 mg/kg/injection, schedule: Q01DX009 (ip), vehicle: Klucel (hydroxypropylcellulose) (HPC)",96 % of control
same,T/C,[6],100 % of control
same,T/C,[7],115 % of control
same,T/C,[8],103 % of control
COc1nc(NC2OCC(OC(C)=O)C(OC(C)=O)C2OC(C)=O)c(N=C(C)C(C)=O)c(=O)n1C (stereo not given),T/C,[14],86 % of control
same,T/C,[15],92 % of control
same,T/C,[16],94 % of control
C#CCN(C)Cc1cc(OC)c(OC)c(OC)c1,T/C,[4],102 % of control
same,T/C,[5],94 % of control
same,T/C,"dose: 50.0 mg/kg/injection, schedule: Q01DX009 (ip), vehicle: saline",102 % of control and 86 % of control
same,T/C,"dose: 100.0 mg/kg/injection, schedule: Q01DX009 (ip), vehicle: saline",95 % of control and 96 % of control
CNC(=O)C(NC(=O)C(NC(=O)c1c2nc3c(C(=O)NC(C(=O)NC(C(=O)NC)C(C)C)C(C)O)ccc(C)c3oc-2c(C)c(=O)c1N)C(C)O)C(C)C (stereo not given),T/C,"dose: 0.05 mg/kg/injection, schedule: Q01DX009 (ip), vehicle: water",101 % of control
same,T/C,"dose: 0.1 mg/kg/injection, schedule: Q01DX009 (ip), vehicle: water",110 % of control
same,T/C,"dose: 0.2 mg/kg/injection, schedule: Q01DX009 (ip), vehicle: water",100 % of control
same,T/C,"dose: 0.4 mg/kg/injection, schedule: Q01DX009 (ip), vehicle: water",99 % of control
same,T/C,"dose: 0.8 mg/kg/injection, schedule: Q01DX009 (ip), vehicle: water",108 % of control
same,T/C,"dose: 1.6 mg/kg/injection, schedule: Q01DX009 (ip), vehicle: water",99 % of control and 90 % of control
same,T/C,"dose: 3.2 mg/kg/injection, schedule: Q01DX009 (ip), vehicle: water",97 % of control
same,T/C,"dose: 6.4 mg/kg/injection, schedule: Q01DX009 (ip), vehicle: water",97 % of control
same,T/C,"dose: 12.8 mg/kg/injection, schedule: Q01DX009 (ip), vehicle: water",99 % of control
COC(=O)N1C=CC2ON=C(OC)C2C1 (stereo not given),T/C,[14],95 % of control
same,T/C,[15],100 % of control
same,T/C,[16],94 % of control
Cc1[nH]ccc2c(C)c3nc4ccccc4c3cc12,T/C,"dose: 6.25 mg/kg/injection, schedule: Q04DX002 (ip), vehicle: water",108 % of control
same,T/C,"dose: 12.5 mg/kg/injection, schedule: Q04DX002 (ip), vehicle: water",121 % of control
same,T/C,[12],163 % of control
same,T/C,"dose: 25.0 mg/kg/injection, schedule: Q04DX002 (ip), vehicle: water",123 % of control
same,T/C,[9],113 % of control
same,T/C,"dose: 100.0 mg/kg/injection, schedule: Q04DX002 (ip), vehicle: water",153 % of control
same,T/C,"dose: 160.0 mg/kg/injection, schedule: Q04DX002 (ip), vehicle: distilled water + Tween-80",157 % of control
same,T/C,"dose: 200.0 mg/kg/injection, schedule: Q04DX002 (ip), vehicle: water",166 % of control
same,T/C,"dose: 320.0 mg/kg/injection, schedule: Q04DX002 (ip), vehicle: distilled water + Tween-80",188 % of control
O=C(O)c1ccc(N2C(=O)CC3(CCCCC3)C2=O)cc1O,T/C,"dose: 100.0 mg/kg/injection, schedule: Q04DX003 (ip), vehicle: Klucel (hydroxypropylcellulose) (HPC)",101 % of control
same,T/C,"dose: 200.0 mg/kg/injection, schedule: Q04DX003 (ip), vehicle: Klucel (hydroxypropylcellulose) (HPC)",102 % of control
same,T/C,"dose: 400.0 mg/kg/injection, schedule: Q04DX003 (ip), vehicle: Klucel (hydroxypropylcellulose) (HPC)",88 % of control
CN(C)c1ccc(C(O)(Cc2cnc3ccccc3c2)c2ccc(N(C)C)cc2)cc1,T/C,[13],95 % of control
same,T/C,"dose: 200.0 mg/kg/injection, schedule: Q04DX003 (ip), vehicle: saline with Tween-80",103 % of control
same,T/C,"dose: 400.0 mg/kg/injection, schedule: Q04DX003 (ip), vehicle: saline with Tween-80",99 % of control
CC(C)(C)[Si](C)(C)OC[C@@H]1OC=CC(=O)[C@H]1O,T/C,[1],102 % of control
same,T/C,[2],94 % of control
same,T/C,[3],101 % of control
CCCCN(CCCC)c1ccc(C(=N)c2ccc(N(C)C)cc2)cc1,T/C,"dose: 6.25 mg/kg/injection, schedule: Q01DX005 (ip), vehicle: Klucel (hydroxypropylcellulose) (HPC)",106 % of control
same,T/C,"dose: 12.5 mg/kg/injection, schedule: Q01DX005 (ip), vehicle: Klucel (hydroxypropylcellulose) (HPC)",106 % of control
COC(=O)Cn1/c(=N\N=C\c2ccccc2)sc2ccccc21,T/C,"dose: 100.0 mg/kg/injection, schedule: Q01DX001 (ip), vehicle: saline with Tween-80",90 % of control
same,T/C,"dose: 200.0 mg/kg/injection, schedule: Q01DX001 (ip), vehicle: saline with Tween-80",87 % of control
same,T/C,"dose: 400.0 mg/kg/injection, schedule: Q01DX001 (ip), vehicle: saline with Tween-80",88 % of control
CC1(C)COC2(C)N(c3ccccc3)C(=O)ON12 (stereo not given),T/C,[1],100 % of control
same,T/C,[2],100 % of control
same,T/C,[3],97 % of control
CCCOC(=O)c1ccccc1C(=O)O,T/C,[9],105 % of control
same,T/C,[10],104 % of control
same,T/C,[11],101 % of control
